Earlier results on two compounds are cited in patent US20180338996A1, “COMBINATION THERAPY FOR TRAUMATIC BRAIN INJURY” (UNIVERSITY OF SOUTH FLORIDA, priority 2017, published 2018).

As to `CCc1ccc(CCOc2ccc(CC3SC(=O)NC3=O)cc2)nc1` (centres unmarked) [PG, pioglitazone], the “adverse effects in clinical use” value was “weight gain, fluid retention, congestive heart failure, and bone fractures”.

`CN(CCOc1ccc(CC2SC(=O)NC2=O)cc1)c1ccccn1` (centres unmarked) [rosiglitazone]: the “adverse effects in clinical use” value is “weight gain, fluid retention, congestive heart failure, and bone fractures”.
